The record followed here is ChEMBL document CHEMBL3865783, “Synthesis and antimicrobial activity against Pseudomonas aeruginosa of macrocyclic β-hairpin peptidomimetic antibiotics containing N-methylated amino acids” (Bioorg Med Chem, 2016).

Experiment [1] addresses T1, LPS-assembly protein LptD (Pseudomonas aeruginosa (strain ATCC 15692 / DSM 22644 / CIP 104116 /JCM 14847 / LMG 12228 / 1C / PRS 101 / PAO1)) (UniProt Q9I5U2).
T1 sequence (whole entry): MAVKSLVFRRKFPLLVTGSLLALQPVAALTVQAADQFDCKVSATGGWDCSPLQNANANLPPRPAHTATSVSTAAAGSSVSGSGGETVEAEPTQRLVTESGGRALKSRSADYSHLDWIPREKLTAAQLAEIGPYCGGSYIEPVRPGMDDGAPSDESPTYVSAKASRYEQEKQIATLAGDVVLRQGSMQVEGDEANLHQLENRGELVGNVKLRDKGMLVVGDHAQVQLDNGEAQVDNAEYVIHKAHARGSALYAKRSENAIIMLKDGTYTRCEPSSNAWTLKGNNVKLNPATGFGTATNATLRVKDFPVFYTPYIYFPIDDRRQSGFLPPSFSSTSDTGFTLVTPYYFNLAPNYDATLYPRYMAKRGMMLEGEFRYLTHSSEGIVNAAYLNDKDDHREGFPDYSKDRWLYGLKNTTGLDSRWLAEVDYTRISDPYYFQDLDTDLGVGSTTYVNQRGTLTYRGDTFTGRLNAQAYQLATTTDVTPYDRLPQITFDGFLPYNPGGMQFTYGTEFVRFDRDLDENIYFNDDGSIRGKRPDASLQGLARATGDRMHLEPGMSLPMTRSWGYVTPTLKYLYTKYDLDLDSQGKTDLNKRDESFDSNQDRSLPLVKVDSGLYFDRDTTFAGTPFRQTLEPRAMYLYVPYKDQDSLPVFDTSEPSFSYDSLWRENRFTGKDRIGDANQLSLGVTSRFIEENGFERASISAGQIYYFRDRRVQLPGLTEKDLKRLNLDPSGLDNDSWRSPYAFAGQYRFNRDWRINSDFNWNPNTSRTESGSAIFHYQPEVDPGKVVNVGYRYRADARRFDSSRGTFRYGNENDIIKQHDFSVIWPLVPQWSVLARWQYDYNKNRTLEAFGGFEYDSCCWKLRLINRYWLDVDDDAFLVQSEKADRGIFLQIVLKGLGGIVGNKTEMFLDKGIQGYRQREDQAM
In words: Inhibition of LptD in Pseudomonas aeruginosa PAO1 assessed as microbial growth inhibition by microbroth dilution method. On the technique in general: In broth dilution the organism is exposed to a series of concentrations in liquid medium.

The test system of experiment [2] is Pseudomonas aeruginosa. In words: Inhibition of LptD in Pseudomonas aeruginosa ATCC 27853 assessed as microbial growth inhibition by microbroth dilution method.

Molecules are shown by their SMILES.

For `CC(C)C[C@@H]1NC(=O)[C@H](Cc2c[nH]c3ccccc23)NC(=O)[C@H]([C@@H](C)O)NC(=O)[C@@H]2CCCN2C(=O)[C@H]2CCCN2C(=O)[C@H](CCCCN)N(C)C(=O)[C@H](C)NC(=O)[C@H](CCN)NC(=O)[C@H](CCCN)NC(=O)[C@H](Cc2c[nH]c3ccccc23)NC(=O)[C@H](CCCNC(=N)N)NC(=O)[C@@H](CCCCN)NC(=O)[C@H](CCCN)NC(=O)[C@H](CCN)NC1=O`, the MIC in experiment [1] and in experiment [2] was > 64 µg/mL each time.
As to `CC(C)C[C@@H]1NC(=O)[C@H](Cc2c[nH]c3ccccc23)NC(=O)[C@H]([C@@H](C)O)NC(=O)[C@@H]2CCCN2C(=O)[C@H]2CCCN2C(=O)[C@H](CCCCN)NC(=O)[C@H](C)NC(=O)[C@H](CCN)NC(=O)[C@H](CCCN)NC(=O)[C@H](Cc2c[nH]c3ccccc23)NC(=O)[C@H](CCCNC(=N)N)N(C)C(=O)[C@@H](CCCCN)NC(=O)[C@H](CCCN)NC(=O)[C@H](CCN)NC1=O`, the MIC in experiment [1] is 0.75 µg/mL; in experiment [2] it was 0.38 µg/mL.
In the same order, the values of `CC(C)C[C@@H]1NC(=O)[C@H](Cc2c[nH]c3ccccc23)NC(=O)[C@H]([C@@H](C)O)N(C)C(=O)[C@@H]2CCCN2C(=O)[C@H]2CCCN2C(=O)[C@H](CCCCN)NC(=O)[C@H](C)NC(=O)[C@H](CCN)NC(=O)[C@H](CCCN)NC(=O)[C@H](Cc2c[nH]c3ccccc23)NC(=O)[C@H](CCCNC(=N)N)NC(=O)[C@@H](CCCCN)NC(=O)[C@H](CCCN)NC(=O)[C@H](CCN)NC1=O` are 0.38 µg/mL and 0.19 µg/mL.
Take `CC(C)C[C@@H]1NC(=O)[C@H](Cc2c[nH]c3ccccc23)NC(=O)[C@H]([C@@H](C)O)NC(=O)[C@@H]2CCCN2C(=O)[C@H]2CCCN2C(=O)[C@H](CCCCN)NC(=O)[C@H](C)NC(=O)[C@H](CCN)NC(=O)[C@H](CCCN)NC(=O)[C@H](Cc2c[nH]c3ccccc23)NC(=O)[C@H](CCCNC(=N)N)NC(=O)[C@@H](CCCCN)NC(=O)[C@H](CCCN)NC(=O)[C@H](CCN)N(C)C1=O`: the MIC turned out to be 0.009 µg/mL in experiment [1] and 0.005 µg/mL in experiment [2].
On to `CC(C)C[C@@H]1NC(=O)[C@H](Cc2c[nH]c3ccccc23)NC(=O)[C@H]([C@@H](C)O)NC(=O)[C@@H]2CCCN2C(=O)[C@H]2CCCN2C(=O)[C@H](CCCCN)NC(=O)[C@H](C)NC(=O)[C@H](CCN)NC(=O)[C@H](CCCN)NC(=O)[C@H](Cc2c[nH]c3ccccc23)N(C)C(=O)[C@H](CCCNC(=N)N)NC(=O)[C@@H](CCCCN)NC(=O)[C@H](CCCN)NC(=O)[C@H](CCN)NC1=O`, for which the MIC in experiment [1] came out at 0.13 µg/mL; in experiment [2] it was 0.023 µg/mL.
Consider `CC(C)C[C@@H]1NC(=O)[C@H](Cc2c[nH]c3ccccc23)NC(=O)[C@H]([C@@H](C)O)NC(=O)[C@@H]2CCCN2C(=O)[C@H]2CCCN2C(=O)[C@H](CCCCN)NC(=O)[C@H](C)NC(=O)[C@H](CCN)NC(=O)[C@H](CCCN)NC(=O)[C@H](Cc2c[nH]c3ccccc23)NC(=O)[C@H](CCCNC(=N)N)NC(=O)[C@@H](CCCCN)N(C)C(=O)[C@H](CCCN)NC(=O)[C@H](CCN)NC1=O`, for which the results for the MIC in experiment [1] and in experiment [2] were 0.025 µg/mL and 0.012 µg/mL, respectively.
The matching figures for `CC(C)C[C@@H]1NC(=O)[C@H](Cc2c[nH]c3ccccc23)N(C)C(=O)[C@H]([C@@H](C)O)NC(=O)[C@@H]2CCCN2C(=O)[C@H]2CCCN2C(=O)[C@H](CCCCN)NC(=O)[C@H](C)NC(=O)[C@H](CCN)NC(=O)[C@H](CCCN)NC(=O)[C@H](Cc2c[nH]c3ccccc23)NC(=O)[C@H](CCCNC(=N)N)NC(=O)[C@@H](CCCCN)NC(=O)[C@H](CCCN)NC(=O)[C@H](CCN)NC1=O`: > 64 µg/mL and > 64 µg/mL.
For the compound `CC(C)C[C@@H]1NC(=O)[C@H](Cc2c[nH]c3ccccc23)NC(=O)[C@H]([C@@H](C)O)NC(=O)[C@@H]2CCCN2C(=O)[C@H]2CCCN2C(=O)[C@H](CCCCN)NC(=O)[C@H](C)NC(=O)[C@H](CCN)N(C)C(=O)[C@H](CCCN)NC(=O)[C@H](Cc2c[nH]c3ccccc23)NC(=O)[C@H](CCCNC(=N)N)NC(=O)[C@@H](CCCCN)NC(=O)[C@H](CCCN)NC(=O)[C@H](CCN)NC1=O`, the MIC in experiment [1] was 12 µg/mL; in experiment [2], 1 µg/mL.
The matching figures for `CC(C)C[C@@H]1NC(=O)[C@H](Cc2c[nH]c3ccccc23)NC(=O)[C@H]([C@@H](C)O)NC(=O)[C@@H]2CCCN2C(=O)[C@H]2CCCN2C(=O)[C@H](CCCCN)NC(=O)[C@H](C)N(C)C(=O)[C@H](CCN)NC(=O)[C@H](CCCN)NC(=O)[C@H](Cc2c[nH]c3ccccc23)NC(=O)[C@H](CCCNC(=N)N)NC(=O)[C@@H](CCCCN)NC(=O)[C@H](CCCN)NC(=O)[C@H](CCN)NC1=O`: > 64 µg/mL and > 64 µg/mL.
Take `CC(C)C[C@@H]1NC(=O)[C@H](Cc2c[nH]c3ccccc23)NC(=O)[C@H]([C@@H](C)O)NC(=O)[C@@H]2CCCN2C(=O)[C@H]2CCCN2C(=O)[C@H](CCCCN)NC(=O)[C@H](C)NC(=O)[C@H](CCN)NC(=O)[C@H](CCCN)NC(=O)[C@H](Cc2c[nH]c3ccccc23)NC(=O)[C@H](CCCNC(=N)N)NC(=O)[C@@H](CCCCN)NC(=O)[C@H](CCCN)NC(=O)[C@H](CCN)NC1=O`: the MIC in experiment [1] was 0.015 µg/mL; in experiment [2], 0.008 µg/mL.
For `CC(C)C[C@H]1C(=O)N[C@@H](CCN)C(=O)N[C@@H](CCCN)C(=O)N[C@H](CCCCN)C(=O)N[C@@H](CCCNC(=N)N)C(=O)N[C@@H](Cc2c[nH]c3ccccc23)C(=O)N[C@@H](CCCN)C(=O)N[C@@H](CCN)C(=O)N[C@@H](C)C(=O)N[C@@H](CCCCN)C(=O)N2CCC[C@@H]2C(=O)N2CCC[C@H]2C(=O)N[C@@H]([C@@H](C)O)C(=O)N[C@@H](Cc2c[nH]c3ccccc23)C(=O)N1C`, the MIC in experiment [1] and in experiment [2] was > 64 µg/mL each time.
`CC(C)C[C@@H]1NC(=O)[C@H](Cc2c[nH]c3ccccc23)NC(=O)[C@H]([C@@H](C)O)NC(=O)[C@@H]2CCCN2C(=O)[C@H]2CCCN2C(=O)[C@H](CCCCN)NC(=O)[C@H](C)NC(=O)[C@H](CCN)NC(=O)[C@H](CCCN)NC(=O)[C@H](Cc2c[nH]c3ccccc23)NC(=O)[C@H](CCCNC(=N)N)NC(=O)[C@@H](CCCCN)NC(=O)[C@H](CCCN)N(C)C(=O)[C@H](CCN)NC1=O`: the MIC came to 0.008 µg/mL in experiment [1] and 0.009 µg/mL in experiment [2].
Regarding `CC(C)C[C@@H]1NC(=O)[C@H](Cc2c[nH]c3ccccc23)NC(=O)[C@H]([C@@H](C)O)NC(=O)[C@@H]2CCCN2C(=O)[C@H]2CCCN2C(=O)[C@H](CCCCN)NC(=O)[C@H](C)NC(=O)[C@H](CCN)NC(=O)[C@H](CCCN)N(C)C(=O)[C@H](Cc2c[nH]c3ccccc23)NC(=O)[C@H](CCCNC(=N)N)NC(=O)[C@@H](CCCCN)NC(=O)[C@H](CCCN)NC(=O)[C@H](CCN)NC1=O`, the MIC in experiment [1] was found to be 16 µg/mL; in experiment [2], 12 µg/mL.
